Source: patent US20060063792A1, “Substituted morphinans and methods of their use” (Adolor Corporation, priority 2004, published 2006)

Tests used:
μ opioid receptor [1] = molecular target: T1, μ opioid receptor (Homo sapiens, UniProt P35372); experiment: [3H]diprenorphine receptor binding, cloned human μ opioid receptor
T1 construct: expressed in transfected cells
Protocol: The potencies of the compounds were determined by testing the ability of a range of concentrations of each compound to inhibit the binding of the non-selective opioid antagonist, [^3H]diprenorphine, to the cloned human μ, κ, and δ opioid receptors, expressed in separate cell lines. IC50 values were obtained by nonlinear analysis of the data using GraphPad Prism version 3.00 for Windows (GraphPad Software, San Diego). Ki values were obtained by Cheng-Prusoff corrections of IC50 values.
The receptor binding method (DeHaven and DeHaven-Hudkins, “Characterization of Opioid Receptors”, Current Protocols in Pharmacology (Eds. Enna S J and Williams M) 1.4.1-1.4.12, John Wiley & Sons, Inc., New York (1998)) was a modification of the method of Raynor, et al., Mol. Pharmacol. 45:330-334 (1994). After dilution in buffer A and homogenization as before, membrane proteins (10-80 μg) in 250 μL were added to mixtures containing test compound and [^3H]diprenorphine (0.5 to 1.0 nM, 40,000 to 50,000 dpm) in 250 μL of buffer A in 96-well deep-well polystyrene titer plates (Beckman). […] The filters were rinsed 4 times with 1 mL of cold 50 mM Tris HCl, pH 7.8 and radioactivity remaining on the filters determined by scintillation spectroscopy. Nonspecific binding was determined by the minimum values of the titration curves and was confirmed by separate assay wells containing 10 μM naloxone. Ki values were determined by Cheng-Prusoff corrections of IC50 values derived from nonlinear regression fits of 12 point titration curves using GraphPad Prism® version 3.00 for Windows (GraphPad Software, San Diego, Calif.).
To determine the equilibrium dissociation constant for the inhibitors (Ki), radioligand bound (cpm) in the presence of various concentrations of test compounds was measured. […] The Ki values were then determined from the […] values by the following equation, [formula] where [ligand] is the concentration of radioligand and Kd is the equilibrium dissociation constant for the radioligand.

μ opioid receptor [2] = molecular target: T1, μ opioid receptor; experiment: Inhibition of agonist (loperamide)-stimulated [35S]GTPγS binding to membranes with cloned human μ opioid receptor; format: biochemical
Protocol: The potencies of the antagonists were assessed by their abilities to inhibit agonist-stimulated [^35S]GTPγS binding to membranes containing the cloned human μ, κ, or δ opioid receptors. The agonists used were loperamide for the μ opioid receptor, U50488H for the κ opioid receptor, and BW373U86 for the δ opioid receptor.
To determine the IC50 value, which was the concentration to give half-maximal inhibition of agonist-stimulated [^35S]GTPγS binding, the amount of [^35S]GTPγS bound in the presence of a fixed concentration of agonist and various concentrations of antagonist was measured. The fixed concentration of agonist was the EC80 for the agonist, which was the concentration to give 80% of the relative maximum stimulation of […] binding. The IC50 value was determined from a best nonlinear regression fit of the data to the following equation, [formula] where Y is the amount of [^35S]GTPγS bound at each concentration of antagonist, Bottom is the calculated amount of [^35S]GTPγS bound in the presence of an infinite concentration of antagonist, Top is the calculated amount of [^35S]GTPγS bound in the absence of added antagonist, X is the logarithm of the concentration of antagonist, and LogIC50 is the logarithm of the concentration of antagonist where the amount of [^35S]GTPγS bound is halfway between Bottom and Top. The nonlinear regression fit was performed using GraphPad Prism® version 3.00 for Windows (GraphPad Software, San Diego, Calif.). Mouse Gastrointestinal Transit (GIT) Assay (in vivo Assay)

T1 sequence (P35372 whole entry): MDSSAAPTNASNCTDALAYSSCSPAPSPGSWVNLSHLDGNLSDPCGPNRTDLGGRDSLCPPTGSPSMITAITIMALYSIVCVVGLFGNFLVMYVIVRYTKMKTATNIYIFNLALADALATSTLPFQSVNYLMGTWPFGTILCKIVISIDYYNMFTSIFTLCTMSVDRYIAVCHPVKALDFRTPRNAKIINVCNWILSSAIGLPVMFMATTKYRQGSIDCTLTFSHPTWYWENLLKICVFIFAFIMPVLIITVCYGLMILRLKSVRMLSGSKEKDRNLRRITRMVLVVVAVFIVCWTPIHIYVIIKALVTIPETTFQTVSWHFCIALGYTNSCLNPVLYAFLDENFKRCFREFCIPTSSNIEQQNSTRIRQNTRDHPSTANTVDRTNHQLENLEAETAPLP

SMILES	Ki (μ opioid receptor [1])	IC50 (μ opioid receptor [2])
O=C(O)CNC(=O)/C=C1/CC[C@@]2(O)[C@H]3Cc4ccc(O)c5c4[C@@]2(CCN3CC2CC2)[C@H]1O5 [Example 33, 4,5α-Epoxy-3,14β-dihydroxy-6,6Z(N-acryloylamino-acetic acid)-17-(cyclopropylmethyl)morphinan]	3 nM	21.3 nM
CC(=O)N[C@@]12CC[C@H](NCc3ccccc3)[C@@H]3Oc4c(O)ccc5c4[C@@]31CCN(CC1CC1)[C@@H]2C5 [Example 73, 4,5α-Epoxy-3-hydroxy-14β-acetylamino-6-α-benzylamino-17-(cyclopropylmethyl)morphinan]	2.8 nM	4.2 nM
O=C(O)CCCC(=O)N[C@@]12CCC(=O)[C@@H]3Oc4c(O)ccc5c4[C@@]31CCN(CC1CC1)[C@@H]2C5 [Example 85]	4.1 nM	1.1 nM
